This is an account of results in patent publication US20150238483A1, “Traitement des neuronopathies motrices” (CENTRE NATIONAL DE LA RECHERCHE SCIENTIFIQUE- CNRS, priority 2012, published 2015).

The structures appear in SMILES notation. Structures can show the parent of a compound that is named as a salt. Where two headings read alike, the source gives them in different places.

Data set [1] relates to immortalized SMA fibroblasts. In words: Distribution of the SMN protein to Cajal bodies (CBs) in immortalized SMA fibroblasts, immunolabeling, cells counted. As to conditions: for induction factor of cells with SMN protein in CBs (DMSO = 1): 24 hours of treatment at 2 micrograms/ml, immortalized SMA fibroblasts; for Maximum induction: at 2 μg/ml, DMSO = 1; for Maximum induction / Dilution at EC50: immortalized type I line; for Dilution at EC50: dilution relative to 2 μg/ml. The data set is classed as cell-based, human. On the procedure:
This immortalization is described in the publication Lefebvre S, Burlet P, Viollet L, Bertrandy S, Huber C, Belser C and Munnich A. A novel association of the SMN protein with major non-ribosomal nucleolar proteins and its implication in spinal muscular atrophy. Hum Mol Genet (2002) 11 (9): 1017-1027.
The blockers of the invention are commercially available (for example from Sigma-Aldrich) and are sold in 96-well plates, at 2 milligrams per molecule per well to be dissolved in 1 ml of DMSO.
In order to determine whether the calcium channel blockers exerted a positive effect, the inventors counted the cells which had the SMN protein located in the CBs out of 100 cells randomly selected for each experiment.
This experiment was repeated three times.
A value of induction by a factor equal to 1 was arbitrarily assigned to DMSO.
In order to evaluate the relationship between the concentration (dose) and the effect (response) on the CBs of the immortalized SMA cells, the inventors constructed a dose-response curve for each of the molecules.

The conditions of data set [2]: humans, cited from earlier work; for maximum plasma level: oral, 10 mg per day.
Data set [3] has as its system immortalized SMA cells. In words: Co-immunolabeling of coilin and TMG cap: snRNPs at the level of CBs in immortalized SMA cells. The format is cell-based, human. Particulars: 24 hours of treatment; chi-2, 0.001<p<0.01; n=300 cells. On the procedure:
Co-immunolabeling experiments similar to the previous ones were carried out on the immortalized SMA cells using two commercial antibodies, one specific for the coilin protein (CBs marker) and the other for the trimethylguanosine (TMG) cap of the small nuclear RNAs of snRNPs.
These tests show an increase in the SMN protein and in the snRNPs in Cajal bodies in the immortalized SMA line from the severe form of the disease (type I), induced by the calcium channel blockers of the invention. The mean value for the snRNPs is calculated from the three experiments (n=300 cells).

For data set [4], the system named is amyotrophic lateral sclerosis. As to conditions: ALS patients; cited from earlier work.

As for `CCCCc1oc2ccccc2c1C(=O)c1cc(I)c(OCCN(CC)CC)c(I)c1` [Amiodarone hydrochloride, (2-butyl-3-benzofuranyl)[4-[2-(diethylamino)ethoxy]-3,5-diiodophenyl]methanone hydrochloride], in data set [1], the “induction factor of cells with SMN protein in CBs (DMSO = 1)” value (“induction factor of cells” for short) was “approximately 2.8” and the Maximum induction was determined as 2.8 ± 1.0.
For `Fc1ccc(C(c2ccc(F)cc2)N2CCN(C/C=C/c3ccccc3)CC2)cc1` [Flunarizine dihydrochloride, flunarizine dihydrochloride], in data set [1], the “induction factor of cells” value was “approximately 4.8”, the Maximum induction was determined as 4.8 ± 1.5 and the “Dilution at EC50” value is 1/53. In data set [1] (compounds diluted to 1/1000 compared with examples 1 and 2, FIG. 1), the “induction factor of SMN protein distribution to CBs (DMSO = 1)” value was found to be 1.2. Further, in data set [2], the maximum plasma level entry is reported as “approximately 81±16 nanograms/ml” and the elimination half-life result is on record as “long”. Besides, the maximum plasma level result in data set [2] (converted from ng/ml) is “approximately 170±34 nM”. Also, in data set [3], the “snRNPs at the level of the CBs” value is on record as “significant increase”.
With `NCC1(CC(=O)O)CCCCC1` [Gabapentin, 2-[1-(aminomethyl)cyclohexyl]acetic acid], in data set [1], the “induction factor of cells” value was “approximately 3.3”, the Maximum induction is recorded as 4.4 ± 1.0 and the “Dilution at EC50” value is given as 1/55. Further, a half-maximal response in data set [1] (Homo sapiens, Fibroblast) (EC50) required 210 ± 38 nM.
Take `Nc1nc2ccc(OC(F)(F)F)cc2s1` [Riluzole]: the “improvement of patient prognosis” value in data set [4] was 30%.
On to `CC(C)C[C@H](CN)CC(=O)O` [pregabalin], for which the “induction factor of cells” value in data set [1] is recorded as 1.7.

As usually defined, the EC50 is the concentration giving half of the maximal effect.
